Data set [1] in a line: Photophysical characterization (UV-Vis absorption, isomerization under blue light). It is filed as physicochemical. An excerpt: (§1) The Ziapin 2 molecule (FIG. 1a) in DMSO has a strong absorption peak centered at 470 nm (FIG. 1b) and a peak at 330nm, attributed respectively to the transitions n→Π* and Π→Π* of the E isomer. […] Azobenzene fluorescence is also an ideal tool for monitoring the switch behavior of photoreponsive materials, as well as the localization and photodynamics in living cells. The decrease of Ziapin 2 time-dependent fluorescence following exposure to blue light in DMSO solution (FIG. 1c) is related to the weakening of the photoluminescence of the E conformer due to the photoisomerization reaction. Time-dependent fluorescence measurements (FIG. 1d) indicate a clear “photo-switching” dynamics of azobenzene in living HEK293 cells, with estimated isomerization/relaxation degrees of 0.01 cm^2J^−1 and 0.0085s^−1. […] An analogous characterization was performed with the Ziapin 1 molecule (FIG. 1e,f).
The isomerization reaction for the compound NO2/1C6Py is not observed, since in this case the nitro-azobenzene having a push-pull configuration has a rapid thermal relaxation (>ns) which hinders the appearance of the absorption of the cis isomer in the investigated temporal regime (Bandara et al., Chem. Soc. Rev., 2012, 41, 1809-1825).

Data set [2] has as its system primary neurons. The data set can be described thus: Compound localization testing by confocal microscopy (Cell Mask, Vybrant markers). It is filed as cell-based. The conditions noted are these: for coverage of the cell surface / fraction of compound located in plasma membranes and in lipid rafts: primary neurons, confocal microscopy. The text has this:
FIG. 4: confocal microscopy images showing the localization of the Ziapin 2 molecule in the vicinity of the plasma membranes (a) and in the lipid rafts (b) of primary neurons.
FIG. 5: confocal microscopy images showing the localization of the Ziapin 1 molecule in the vicinity of the plasma membranes (a) and in the lipid rafts (b) of primary neurons.
Molecules tend to localize in cell membranes and change their conformation. […] The targeting of both molecules at the plasma membrane level was analyzed in cultures of primary neurons using specific markers for the cell membrane (Cell Mask, FIG. 4a, FIG. 5a, respectively) or for lipid rafts, membrane areas rich in cholesterol and ion channels (Vybrant, FIG. 4b, FIG. 5b, respectively).

Data set [3] deals with primary neurons. The data set can be described thus: Electrophysiology (current-clamp) on primary neurons under light stimulation. The format is cell-based. Here is the method:
FIG. 6: electrophysiology conducted on HEK293 cells (a, b), primary neurons in the absence (c, d) or in the presence of synaptic blockers (e, f) treated with Ziapin 2 and under illumination. (a) Representative average current-clamp traces recorded from HEK293 cells incubated with DMSO 0.25% (v/v) (Ctrl; black line) or 25 μM Ziapin 2 in DMSO (gray line) and photostimulated for 20 ms (top) or 200 ms (bottom) (wavelength 470 nm, light power density of 47 mW/mm^2, shaded areas in gray). (b) Average hyperpolarization and subsequent depolarization in HEK293 cells. (c, d) Representative current-clamp traces of passive (hyperpolarization/depolarization, left) and active (action potentials, right) responses recorded from neurons incubated in DMSO 0.25% (v/v) (Ctrl; black line) or with 5 μM Ziapin 2 in DMSO (gray line) in the absence (c) or presence (e) of synaptic blockers. The duration of light stimulation (20 and 200 ms, respectively) is indicated as a shaded area (wavelength 470 nm, light power density of 20 mW/mm^2). (d, f) Quantification of the hyperpolarization (left) and depolarization (right) peak in primary neurons exposed to DMSO or Ziapin 2 in the absence (d) or presence (f) of synaptic blockers and subjected to 20 or 200 ms of light stimulation.
FIG. 7: modulation of membrane capacitance and conductance in primary neurons following light stimulation. Representative traces of capacity (a) and conductance (b) recorded in current-clamp from primary neurons incubated with 0.25% (v/v) DMSO (Ctrl; black line) or 5 μM Ziapin 2 in DMSO (gray line) in the presence of synaptic and photostimulated blockers with 20 ms (left) or 200 ms (right) (wavelength 470 nm, light power density of 20 mW/mm^2, shaded areas). (c, d) Quantification of peak capacity (c) and conductance (d) variations evoked by light stimuli of 20 and 200 ms.
FIG. 8: effect of Ziapin 1 on passive and active membrane properties in primary hippocampal neurons. […] (a) Quantification of hyperpolarization (left) and depolarization (right) in response to light stimulation for 20/200 ms. […]

The subject of the next data set is somatosensory cortex. The data set can be described thus: Cortical responses evoked by light in vivo (LFP recordings after stereotaxic injection). Further details: species or system mice. Here is the method:
FIG. 9: cortical responses evoked by light in vivo in the somatosensory cortex of mice exposed to Ziapin 2. (a) Schematic representation of the stereotaxic injection of Ziapin 2 (200 mM in 1 μl of 10% DMSO) in the somatosensory cortex (S1ShNc, 2 mm anterior to lambda, 2 mm lateral to the midline and −723 μm ventral to the brain surface) and of the 16-fiber optic coupled microelectrode system for photostimulation and field potential recordings (LFP). (b) Representative LFP recordings evoked in the somatosensory cortex with light stimulation of 20 and 200 ms (43 mW/mm^2) in mice injected with DMSO (black line) or Ziapin 2 (gray line). The shaded areas represent light stimulation. (c) Dose-response analysis of LFPs in mice injected with DMSO (black line) or Ziapin 2 (gray line) depending on the power and duration of photostimulation.
The objective was to investigate whether the light-dependent modulation of neuronal activity observed in vitro occurred also in vivo. The electrophysiological recordings were obtained by implanting an array of 16 microelectrodes coupled to an optical fiber for photostimulation. […] The response peaked at around 200 ms following the light stimulus (FIGS. 9c and d).

The next data set deals with HEK293 cells. The data set can be described thus: Time-dependent fluorescence photo-switching dynamics in living HEK293 cells. It is filed as cell-based. Here is the method: FIG. 1: (a) scheme of the isomerization process of a compound according to the present invention. Absorption (b) and emission (c) spectra of the compound Ziapin 2 25 μM in DMSO. (d) photoswitching dynamics of Ziapin 2 in water, DMSO and in HEK293 cells. (e, f) absorption and photoluminescence of Ziapin 1 25 μM in DMSO (e) and evolution of the absorption peak at 470 nm by illuminating with a diode at 450 nm (f).
as §1

The structures appear in SMILES notation.

`O=[N+]([O-])c1ccc(N=Nc2ccc(NCCCCCC[n+]3ccccc3)cc2)cc1` [NO2/1C6Py]: the “trans-cis isomerization reaction in UV-Vis absorption spectra” value in data set [1] (470 nm, FIG. 18) is given as “not observed”.

As to `c1cc[n+](CCCCCCNc2ccc(N=Nc3ccc(N4CCCCCC4)cc3)cc2)cc1` [Ziapin 1], in the data set on primary neurons [2], the “coverage of the cell surface” value is “about 20%”; the “fraction of compound located in plasma membranes and in lipid rafts” value is on record as “less than 50%”. The “modulation of passive and active membrane properties following light stimulation” value in the data set on primary neurons [3] (compared with Ziapin 2) is on record as “lower modulation effect”.

Take `c1cc[n+](CCCCCCN(CCCCCC[n+]2ccccc2)c2ccc(N=Nc3ccc(N4CCCCCC4)cc3)cc2)cc1` [Ziapin 2]: in the data set on somatosensory cortex (1 μl in the somatosensory cortex, fluorescence analysis), the “diameter of the area of diffusion and absorption of the molecule by cortical cells” value is reported as “about 1 mm”. For the same compound, the “time of response peak following the light stimulus” value with somatosensory cortex (LFP, somatosensory cortex) was “around 200 ms”. Also, the “LFP changes with respect to DMSO alone” value with somatosensory cortex (absence of the light stimulus and highest power used (160 mW/mm^2)) is recorded as “No significant changes”. In the data set with somatosensory cortex (higher power densities), the “LFP response compared with DMSO” value is recorded as “significantly higher”. For the same compound, in the data set on somatosensory cortex (optical stimulation 20 and 200 ms, 472 nm laser, different intensities), the “cortical activity evaluated in terms of field potentials (LFP)” value is listed as “significant activation”. In addition, in the data set on somatosensory cortex (stimulations at 25 and 43 mW/mm^2, 20 ms illumination), the “LFP response compared with animals treated with DMSO” value was “significantly different”. The “localization at the lipid rafts, Ziapin 2 compared with Ziapin 1” value with primary neurons [2] (primary neuron cultures exposed to compound) is on record as “considerably more marked”. In addition, in the data set on primary neurons [2], the “coverage of the cell surface” value is given as “about 20%”; the “fraction of compound located in plasma membranes and in lipid rafts” value is listed as “about 70%”. The “membrane potential response to the light stimulus” value in the data set with primary neurons [3] (20 or 200 ms light) is on record as “hyperpolarization is followed by a depolarization”. In addition, the “capacity and conductivity of the membrane under light stimulation compared to the values in the dark” value in the data set with primary neurons [3] (synaptic blockers) is “significant decrease”. Moreover, the strong absorption peak in data set [1] (in DMSO, E isomer, transition n→Π*) is 470 nm. In data set [1] (in DMSO, E isomer, transition Π→Π*), the absorption peak was 330 nm. In the data set with HEK293 cells, the estimated isomerization degree is listed as 0.01 cm^2J^−1 and the estimated relaxation degree was 0.0085 s⁻¹.
